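Briefly, cells in 96-well plates were exposed to five compound concentrations for 48 h, and endpoints were estimated by linear interpolation. TGI is the concentration that stops growth completely.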
Assays:
Test in all cases: NCI tumour cell line growth inhibition, 48 h
A498 renal = tested on: A498 renal
ACHN renal = tested on: ACHN renal
CCRF-CEM leukemia = tested on: CCRF-CEM leukemia
COLO 205 colon = tested on: COLO 205 colon
HL-60(TB) leukemia = tested on: HL-60(TB) leukemia
HOP-92 NSCLC = tested on: HOP-92 NSCLC
HS 578T breast = tested on: HS 578T breast
HT29 colon = tested on: HT29 colon
K-562 leukemia = tested on: K-562 leukemia
KM12 colon = tested on: KM12 colon
MALME-3M melanoma = tested on: MALME-3M melanoma
MCF7 breast = tested on: MCF7 breast
MOLT-4 leukemia = tested on: MOLT-4 leukemia
PC-3 prostate = tested on: PC-3 prostate
RPMI-8226 leukemia = tested on: RPMI-8226 leukemia
SF-268 CNS = tested on: SF-268 CNS
SNB-75 CNS = tested on: SNB-75 CNS
U251 CNS = tested on: U251 CNS
UACC-62 melanoma = tested on: UACC-62 melanoma
UO-31 renal = tested on: UO-31 renal

Row | Structure (SMILES) | TGI (A498 renal) [µM] | TGI (ACHN renal) [µM] | TGI (CCRF-CEM leukemia) [µM] | TGI (COLO 205 colon) [µM] | TGI (HL-60(TB) leukemia) [µM] | TGI (HOP-92 NSCLC) [µM] | TGI (HS 578T breast) [µM] | TGI (HT29 colon) [µM] | TGI (K-562 leukemia) [µM] | TGI (KM12 colon) [µM] | TGI (MALME-3M melanoma) [µM] | TGI (MCF7 breast) [µM] | TGI (MOLT-4 leukemia) [µM] | TGI (PC-3 prostate) [µM] | TGI (RPMI-8226 leukemia) [µM] | TGI (SF-268 CNS) [µM] | TGI (SNB-75 CNS) [µM] | TGI (U251 CNS) [µM] | TGI (UACC-62 melanoma) [µM] | TGI (UO-31 renal) [µM]
1 | CC(=O)O[C@H]1CC[C@@]2(C)C(=CC[C@@H]3[C@@H]2CC[C@](C)(c2nnc(C)o2)[C@H]3CC#N)C1 | > 100 | > 100 | > 100 | > 100 | > 100 | > 100 | > 100 | > 100 | > 100 | > 100 | > 100 | > 100 | > 100 | > 100 | > 100 | > 100 | > 100 | > 100 | > 100 | > 100
2 | CCCNCC(O)CNc1ccc(NCC(O)CNCCC)c2c1C(=O)c1ccccc1C2=O (stereo not given) | 23.5 | 18.3 | 4.35 | 7.97 | 18.9 | 6.81 | 16.6 | 7.69 | 8.21 | 17.3 | 11.3 | 7.5 | 7.6 | 4.7 | 6.05 | 5.66 | 8.83 | 9.02 | 4.95 | 31.8
3 | CC(C)OC(=O)NNc1cccc(Cl)c1 | > 100 | > 100 | > 100 | > 100 | > 100 | > 100 | > 100 | > 100 | > 100 | > 100 | > 100 | > 100 | > 100 | > 100 | > 100 | > 100 | > 100 | > 100 | > 100 | > 100
4 | O=C1Nc2ccccc2/C1=C\c1c(-c2ccccc2)nc2n1CCS2 | 68.8 | > 100 | > 100 | 81.3 | 42.3 | > 100 | 75.2 | 39.9 | > 100 | 37.5 | 74.1 | 39.3 | 81 | 48.3 | 65.8 | 86.9 | 42.8 | 45.3 | 27.4 | 80.6
5 | O=C(CCc1ccc(O)c(O)c1)NCCc1cc(O)c(O)c(O)c1 | > 100 | > 100 | > 100 | > 100 | > 100 | > 100 | > 100 | 35.4 | 41.4 | > 100 | > 100 | 21.7 | 46.5 | > 100 | > 100 | > 100 | > 100 | 31.7 | > 100 | > 100
6 | C=CC(OC(=O)C(C)C)c1ccc(OC(=O)C(C)C)cc1 (stereo not given) | 31.6 | 28 | 10.7 | 27.6 | 21 | 31.4 | > 100 | 26.3 | 66.6 | 5.16 | 22 | 12.2 | 49.7 | 21.9 | 11.7 | 62.2 | 28.6 | 15.3 | 31 | 30.9

From PubChem BioAssay (NCI)
